Experiments:
[1] = test system: HEK293 FOP control reporter cell line; test: HEK293 FOP control reporter assay; assay type: cell-based, human; settings: Homo sapiens, HEK293, 16 h; read-out: HEK FOP IC50
Method: Measurement of luciferase expression was done as described for the constitutive active Wnt assay.
(§1) In a parallel approach, HEK293 cells were cotransfected with the FOP control vector and pcDNA3. The FOP vector is identical to the TOP construct, but it contains instead of functional TCF elements a randomized, non-functional sequence. For this transfection a stable transfected cell line was generated as well, based on selection with Geneticin (1 mg/ml).

[2] = test system: constitutive active colorectal cancer cell (CRC) Wnt pathway; test: HCT116 TOPFlash cellular reporter assay (Super TopFlash luciferase), constitutive active Wnt pathway; assay type: cell-based; settings: HCT116 TOP reporter cells, 36 hours incubation, luciferase expression
Method: In order to discover and characterize small molecules which inhibit the constitutive active colorectal cancer cell (CRC) Wnt pathway, a cellular reporter assay was employed. […] Stable transfectants were generated by cotransfection with pcDNA3 and selection of stable transfected cells with 1 mg/ml G418.

[3] = test system: HCT116 FOP control reporter cell line; test: HCT116 FOPFlash control reporter assay (FOP control vector, non-functional TCF elements); assay type: cell-based; settings: HCT116 FOP control reporter cells, 36 hours incubation, luciferase expression
Excerpt: as §1, with “HCT116” for “HEK293”, “well.” for “well, based on selection with Geneticin (1 mg/ml).”

| IC50 ([2]; Homo sapiens, HCT-116, 36 h) [µM] | IC50 ([3]; Homo sapiens, HCT-116, 36 h) [µM] | SMILES | IC50 [1] [µM] | further results |
| --- | --- | --- | --- | --- |
|  |  | O=C(CN1CCN(C2CC2)CC1)Nc1cc(C(=O)Nc2nnc(-c3ccccc3)s2)ccc1OC(F)(F)F [Example 53, 3-{[(4-cyclopropylpiperazin-1-yl)acetyl]amino}-N-(5-phenyl-1,3,4-thiadiazol-2-yl)-4-(trifluoromethoxy)benzamide] | ≥ 50 |  |
|  |  | O=C(Nc1nnc(-c2ccccc2)s1)c1ccc(OC(F)(F)F)c(NC(=O)C2(N3CCN(C4CC4)CC3)CC2)c1 [Example 51, 3-({[1-(4-cyclopropylpiperazin-1-yl)cyclopropyl]carbonyl}amino)-N-(5-phenyl-1,3,4-thiadiazol-2-yl)-4-(trifluoromethoxy)benzamide] | ≥ 50 |  |
|  |  | CC(C(=O)Nc1cc(C(=O)Nc2nnc(-c3ccccc3)s2)ccc1OC(F)(F)F)N1CCN(C)CC1 (centres unmarked) [Example 58, 3-{[2-(4-methylpiperazin-1-yl)propanoyl]amino}-N-(5-phenyl-1,3,4-thiadiazol-2-yl)-4-(trifluoromethoxy)benzamide] | ≥ 50 |  |
|  |  | CC(C(=O)Nc1cc(C(=O)Nc2ccc(-c3ccccc3F)nc2)ccc1OC(F)(F)F)N1CCN(C)CC1 (centres unmarked) [Example 64, N-[6-(2-fluorophenyl)pyridin-3-yl]-3-{[2-(4-methylpiperazin-1-yl)propanoyl]amino}-4-(trifluoromethoxy)benzamide] | ≥ 50 |  |
|  |  | O=C(CN1CCN(C2CC2)CC1)Nc1cc(C(=O)Nc2ccc(-c3ccccc3F)nc2)ccc1OC(F)(F)F [Example 63, 3-{[(4-cyclopropylpiperazin-1-yl)acetyl]amino}-N-[6-(2-fluorophenyl)pyridin-3-yl]-4-(trifluoromethoxy)benzamide] | ≥ 50 |  |
|  |  | COc1ccc(-c2ccc(C(=O)Nc3ccc(OC)c(NC(=O)CN4CCOCC4)c3)s2)cc1 [Example 35, N-{4-methoxy-3-[(morpholin-4-ylacetyl)amino]phenyl}-5-(4-methoxyphenyl)thiophene-2-carboxamide] | ≥ 50 |  |
|  |  | O=C(Nc1ccc(-c2ccccc2)cn1)c1ccc(OC(F)(F)F)c(NC(=O)C2(N3CCOCC3)CC2)c1 [Example 95, 3-({[1-(morpholin-4-yl)cyclopropyl]carbonyl}amino)-N-(5-phenylpyridin-2-yl)-4-(trifluoromethoxy)benzamide] | ≥ 50 |  |
|  |  | CN1CCN(CC(=O)Nc2cc(C(=O)Nc3nnc(-c4cccc(Cl)c4)s3)ccc2OC(F)(F)F)CC1 [Example 151, N-[5-(3-chlorophenyl)-1,3,4-thiadiazol-2-yl]-3-{[(4-methylpiperazin-1-yl)acetyl]amino}-4-(trifluoromethoxy)benzamide] | ≥ 50 |  |
|  |  | NC(=O)c1ccc(C(=O)Nc2ccc(-c3ccccc3F)nc2)cc1NC(=O)C1(N2CCOCC2)CC1 [Example 75, N^4-[6-(2-fluorophenyl)pyridin-3-yl]-2-({[1-(morpholin-4-yl)cyclopropyl]carbonyl}amino)terephthalamide] | ≥ 50 |  |
|  |  | O=C(Nc1ccc(OC(F)(F)F)c(NC(=O)C2(N3CCOCC3)CC2)c1)c1ccc(-c2ccccc2)nc1 [Example 61, N-[3-({[1-(morpholin-4-yl)cyclopropyl]carbonyl}amino)-4-(trifluoromethoxy)phenyl]-6-phenylnicotinamide] | ≥ 50 |  |
|  |  | O=C(CN1CCOCC1)Nc1cc(C(=O)Nc2ncc(-c3ccccc3)s2)ccc1OC(F)(F)F [Example 14, 3-[(morpholin-4-ylacetyl)amino]-N-(5-phenyl-1,3-thiazol-2-yl)-4-(trifluoromethoxy)benzamide] | ≥ 50 |  |
|  |  | O=C(Nc1nnc(-c2ccccc2)s1)c1ccc(OC(F)F)c(NC(=O)C2(N3CCOCC3)CC2)c1 [Example 37, 4-(difluoromethoxy)-3-({[1-(morpholin-4-yl)cyclopropyl]carbonyl}amino)-N-(5-phenyl-1,3,4-thiadiazol-2-yl)benzamide] | ≥ 50 |  |
|  |  | O=C(Nc1nnc(-c2ccccc2)s1)c1ccc(OC(F)F)c(NC(=O)C2(N3CCN(C4CC4)CC3)CC2)c1 [Example 38, 3-({[1-(4-cyclopropylpiperazin-1-yl)cyclopropyl]carbonyl}amino)-4-(difluoromethoxy)-N-(5-phenyl-1,3,4-thiadiazol-2-yl)benzamide] | ≥ 50 |  |
|  |  | CN1CCN(C2(C(=O)Nc3cc(C(=O)Nc4nnc(-c5ccccc5)s4)ccc3CS(C)(=O)=O)CC2)CC1 [Example 49, 3-({[1-(4-methylpiperazin-1-yl)cyclopropyl]carbonyl}amino)-4-[(methylsulfonyl)methyl]-N-(5-phenyl-1,3,4-thiadiazol-2-yl)benzamide] | ≥ 50 |  |
|  |  | O=C(Nc1nnc(-c2ccccc2)s1)c1ccc(OC(F)(F)F)c(NC(=O)C2(N3CCOCC3)CC2)c1 [Example 50, 3-({[1-(morpholin-4-yl)cyclopropyl]carbonyl}amino)-N-(5-phenyl-1,3,4-thiadiazol-2-yl)-4-(trifluoromethoxy)benzamide] | ≥ 50 |  |
| 3.8 | ≥ 50 | CN1CCN(CC(=O)Nc2cc(C(=O)Nc3nnc(-c4ccccc4)s3)ccc2C#N)CC1 [Example 174, 4-cyano-3-{[(4-methylpiperazin-1-yl)acetyl]amino}-N-(5-phenyl-1,3,4-thiadiazol-2-yl)benzamide] |  |  |
| 0.0338 | 32 | CN1CCN(C2(C(=O)Nc3cc(C(=O)Nc4nnc(-c5ccccc5)s4)ccc3OC(F)F)CC2)CC1 [Example 39, 4-(difluoromethoxy)-3-({[1-(4-methylpiperazin-1-yl)cyclopropyl]carbonyl}amino)-N-(5-phenyl-1,3,4-thiadiazol-2-yl)benzamide] |  |  |
| 0.24 | ≥ 50 | O=C(Nc1nnc(-c2ccccc2)s1)c1ccc(O)c(NC(=O)C2(N3CCOCC3)CC2)c1 [Example 93, 4-hydroxy-3-({[1-(morpholin-4-yl)cyclopropyl]carbonyl}amino)-N-(5-phenyl-1,3,4-thiadiazol-2-yl)benzamide] |  |  |
| 1.08 | 12 | CN1CCCN(CC(=O)Nc2cc(C(=O)Nc3nnc(-c4ccccc4)s3)ccc2OC(F)(F)F)CC1 [Example 168, 3-{[(4-methyl-1,4-diazepan-1-yl)acetyl]amino}-N-(5-phenyl-1,3,4-thiadiazol-2-yl)-4-(trifluoromethoxy)benzamide] |  |  |
| 0.385 | ≥ 50 | CN1CCN(CC(=O)Nc2cc(C(=O)Nc3nnc(-c4ccccc4)s3)ccc2C(F)(F)F)CC1 [Example 59, 3-{[(4-methylpiperazin-1-yl)acetyl]amino}-N-(5-phenyl-1,3,4-thiadiazol-2-yl)-4-(trifluoromethyl)benzamide] |  |  |
| 0.046 | ≥ 50 | CC(C(=O)Nc1cc(C(=O)Nc2ccc(-c3ccc(N(C)C)cc3)nc2)ccc1OC(F)(F)F)N1CCOCC1 (centres unmarked) [Example 114, N-{6-[4-(dimethylamino)phenyl]pyridin-3-yl}-3-{[2-(morpholin-4-yl)propanoyl]amino}-4-(trifluoromethoxy)benzamide] |  |  |
| 0.087 | 26.4 | Cc1ccccc1-c1nnc(NC(=O)c2ccc(OC(F)(F)F)c(NC(=O)CN3CCOCC3)c2)s1 [Example 98, N-[5-(2-methylphenyl)-1,3,4-thiadiazol-2-yl]-3-[(morpholin-4-ylacetyl)amino]-4-(trifluoromethoxy)benzamide] |  |  |
|  |  | CC(C(=O)Nc1cc(NC(=O)c2ccc(-c3cccc(F)c3)nc2)ccc1OC(F)(F)F)N1CC2CCC(C1)O2 (centres unmarked) [Example 188, 6-(3-fluorophenyl)-N-[3-{[2-(8-oxa-3-azabicyclo[3.2.1]oct-3-yl)propanoyl]amino}-4-(trifluoromethoxy)phenyl] nicotinamide] |  | IC50 [2]: 0.12 µM; IC50 [3]: 5.5 µM |
| 0.365 | ≥ 50 | COc1cccc(-c2nnc(NC(=O)c3ccc(OC(F)(F)F)c(NC(=O)CN4CCN(C)CC4)c3)s2)c1 [Example 146, N-[5-(3-methoxyphenyl)-1,3,4-thiadiazol-2-yl]-3-{[(4-methylpiperazin-1-yl)acetyl]amino}-4-(trifluoromethoxy)benzamide] |  |  |
| 0.685 | ≥ 50 | CC1CN(C)CCN1CC(=O)Nc1cc(C(=O)Nc2nnc(-c3ccccc3)s2)ccc1OC(F)(F)F (centres unmarked) [Example 167, 3-{[(2,4-dimethylpiperazin-1-yl)acetyl]amino}-N-(5-phenyl-1,3,4-thiadiazol-2-yl)-4-(trifluoromethoxy)benzamide] |  |  |
|  |  | CC(C(=O)Nc1cc(C(=O)Nc2ccc(-c3cccc(F)c3)nc2)ccc1OC(F)(F)F)N1CCOCC1 (centres unmarked) [Example 69, N-[6-(3-fluorophenyl)pyridin-3-yl]-3-{[2-(morpholin-4-yl)propanoyl]amino}-4-(trifluoromethoxy)benzamide] |  | IC50 [2]: 0.0148 µM; IC50 [3]: ≥ 50 µM |
| 0.53 | ≥ 50 | O=C(CN1CCOCC1)Nc1cc(C(=O)Nc2ncc(-c3ccccc3)s2)ccc1C(F)(F)F [Example 12, 3-[(morpholin-4-ylacetyl)amino]-N-(5-phenyl-1,3-thiazol-2-yl)-4-(trifluoromethyl)benzamide] |  |  |
| 0.858 | 48 | CC(C(=O)Nc1cc(C(=O)Nc2nnc(-c3ccccc3)s2)ccc1CS(C)(=O)=O)N1CCOCC1 (centres unmarked) [Example 87, 4-[(methylsulfonyl)methyl]-3-{[2-(morpholin-4-yl)propanoyl]amino}-N-(5-phenyl-1,3,4-thiadiazol-2-yl)benzamide] |  |  |

Reference: patent publication US10130633B2, “Compounds” (BAYER PHARMA AKTIENGESELLSCHAFT, priority 2013, dated 2018)
